From the supplement of paper PMC10307832

How the values were obtained:
Assay in all cases: relative viability (nuclei count vs DMSO), 5 days (fraction); higher = more cells survive
[1] = compound: CCn1c(-c2nonc2N)nc2c(C#CC(C)(C)O)ncc(OC[C@H]3CCCNC3)c21 + CC(=O)Nc1cccc(-n2c(=O)n(C3CC3)c(=O)c3c(Nc4ccc(I)cc4F)n(C)c(=O)c(C)c32)c1 [Trametinib] (partner 0.02 µM)
How it was run: (§1)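 Lung cancer cell lines were seeded in 1536-well plates and dosed by pin tool the next day, with either a single drug or a fixed anchor-drug dose combined with five library-drug doses (not always all listed) spaced in √10 steps. Five days later, one step fixed the cells and stained their nuclei (final 0.05% Triton X-100, 1% formaldehyde, 1 ug/ml Hoechst), and nuclei were counted on 4× images. Relative viability is the nuclei count in treated wells divided by the count in vehicle wells, and each value is the median of duplicate plates.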

BAM7 + Crizotinib = compound: CCOC1=CC=CC=C1N=NC2=C(NN(C2=O)C3=NC(=CS3)C4=CC=CC=C4)C [BAM7] + C[C@@H](Oc1cc(-c2cnn(C3CCNCC3)c2)cnc1N)c1c(Cl)ccc(F)c1Cl [Crizotinib] (partner 1 µM)
How it was run: as §1

BAM7 + Foretinib = compound: CCOC1=CC=CC=C1N=NC2=C(NN(C2=O)C3=NC(=CS3)C4=CC=CC=C4)C [BAM7] + COc1cc2c(Oc3ccc(NC(=O)C4(C(=O)Nc5ccc(F)cc5)CC4)cc3F)ccnc2cc1OCCCN1CCOCC1 [Foretinib] (partner 0.25 µM)
How it was run: as §1

[2] = compound: CCn1c(-c2nonc2N)nc2c(C#CC(C)(C)O)ncc(OC[C@H]3CCCNC3)c21 + CS(=O)(=O)N1CCN(Cc2cc3nc(-c4cccc5[nH]ncc45)nc(N4CCOCC4)c3s2)CC1 [Pictilisib] (partner 1 µM)
How it was run: as §1

| Cell Line | relative viability ([1]; first compound 0.01 µM) | relative viability ([1]; first compound 0.03162 µM) | relative viability ([1]; first compound 0.1 µM) | relative viability ([1]; first compound 0.3162 µM) | relative viability ([1]; first compound 1 µM) | relative viability (BAM7 + Crizotinib; first compound 0.5 µM) | relative viability (BAM7 + Crizotinib; first compound 5 µM) | relative viability (BAM7 + Crizotinib; first compound 15.81 µM) | relative viability (BAM7 + Crizotinib; first compound 50 µM) | relative viability (BAM7 + Foretinib; first compound 0.5 µM) | relative viability (BAM7 + Foretinib; first compound 5 µM) | relative viability (BAM7 + Foretinib; first compound 15.81 µM) | relative viability (BAM7 + Foretinib; first compound 50 µM) | relative viability ([2]; first compound 0.01 µM) | relative viability ([2]; first compound 0.03162 µM) | relative viability ([2]; first compound 0.1 µM) | relative viability ([2]; first compound 0.3162 µM) | relative viability ([2]; first compound 1 µM) |
| --- | --- | --- | --- | --- | --- | --- | --- | --- | --- | --- | --- | --- | --- | --- | --- | --- | --- | --- |
| 201T | 0.707 | 0.705 | 0.763 | 0.722 | 0.749 | 0.957 | 1.02 | 0.876 | 0.883 | 0.789 | 0.948 | 0.832 | 0.823 | 0.722 | 0.667 | 0.701 | 0.644 | 0.723 |
| NCI-H596 | 0.797 |  | 0.821 | 0.785 | 0.878 | 0.97 | 1.03 | 0.913 | 0.978 | 0.874 | 0.883 | 0.762 | 0.951 | 0.398 | 0.344 | 0.366 | 0.377 | 0.436 |
| H3255 | 0.608 | 0.614 | 0.576 | 0.427 | 0.532 | 0.981 | 0.883 | 0.795 | 0.814 | 0.774 | 0.868 | 0.806 | 0.858 | 0.457 | 0.526 | 0.421 | 0.465 | 0.486 |
| NCI-H647 | 0.481 | 0.493 | 0.475 | 0.364 | 0.323 | 0.758 | 1.25 | 1.14 | 1.08 | 1.4 | 1.2 | 1.16 | 1.21 | 0.366 | 0.468 | 0.23 | 0.368 | 0.44 |
| NCI-H2023 | 0.639 | 0.55 | 0.422 | 0.432 | 0.288 | 0.631 | 0.59 | 0.454 | 0.524 | 0.925 | 0.783 | 0.803 | 0.964 | 0.214 | 0.269 | 0.207 | 0.196 | 0.236 |
| NCI-H23 | 0.373 | 0.378 | 0.433 | 0.369 | 0.357 | 0.587 | 0.535 | 0.424 | 0.515 | 1.05 | 1.03 | 0.928 | 1.1 | 0.421 | 0.375 | 0.373 | 0.445 | 0.417 |
| NCI-H1944 | 0.452 | 0.449 | 0.393 | 0.355 | 0.401 | 0.984 | 1.15 | 0.839 | 0.821 | 0.79 | 0.905 | 0.767 | 0.888 | 0.357 | 0.276 | 0.284 | 0.35 | 0.334 |
| NCI-H520 | 0.645 | 0.789 | 0.574 | 0.322 | 0.2 | 0.705 | 0.747 | 0.856 | 0.684 | 0.736 | 0.825 | 0.767 | 0.804 | 0.332 | 0.345 | 0.249 | 0.241 | 0.272 |
